31 compounds from patent US20250354195A1, “METHOD OF SCREENING” (UNIVERSITY OF DUNDEE, priority 2024, published 2025) can be followed below.

In this experiment the target is T1, GSK3β (Homo sapiens, UniProt P49841+Q96SW2).
T1 construct: genetically engineered using CRISPR/Cas9 technology to endogenously tag GSK3p protein with HiBiT tag at the C-terminus; host or cells: HEK293 cells, CRISPR/Cas9 knock-in of HiBiT at the endogenous GSK3B locus
Put plainly: High throughput screening for GSK3β-HiBiT targeted degradation (Nano-Glo HiBiT Lytic luminescence). Format: cell-based. To be noted: HEK293 cells with endogenously HiBiT-tagged GSK3β, 24 h incubation, products of one-pot plate array (FIG. 1, Method A); for DC50: 0.01-30 μM, read-out: DC50 (half-maximal degradation concentration). As to the method: High throughput Screening for GSK3 β-HiBiTL: Test compounds were transferred into Echo plate (Beckman, 001-12782, Echo LDV384) using BRAVO automated liquid handling platform which serves as source plate (10 mM stocks in DMSO). Serial dilutions of the compounds were done using Echo550 liquid handler as 30 μM, 10 μM, 3 μM, 1 μM, 0.3 μM, 0.1 μM, 0.03 μM and 0.01 μM in final concentrations in assay plates. One column of each assay plate was reserved for DMSO control treatments. After compounds were serially diluted in assay plates, HEK293 cells (CRL-1573, ATCC) genetically engineered using CRISPR/Cas9 technology to endogenously tag GSK3p protein with HiBiT tag at the C-terminus (Schwinn et al., 2018, CRISPR-mediated tagging of endogenous proteins with a luminescent peptide, ACS Chem. Biol., 13(2), 467-74) were seeded at a density of 5000 cells/well in 50 μL complete media in 384-well TC-grade white plates (Perkin Elmer, Culturplate, 6007619) with the help of Multidrop Combi liquid dispenser and cells were incubated for 24 h with compounds at 37° C. in humidified incubators with 5% CO2. At the end of the treatment, equal volume of Nano-Glo HiBiT Lytic reagent (Promega N3030) supplied with Nano-Glo HiBiT Lytic substrate and LgBiT Protein were added into each well according to manufacturer's instructions, and cells were incubated on an orbital shaker for 15 seconds and for a further 15 minutes at room temperature. Luminescence signals were measured in an appropriate plate reader (PHERAstar FSX, BMG Labtech) (Dixon et al., 2016, NanoLuc complementation reporter optimized for accurate measurement of protein interactions in cells, ACS Chem. Biol., 11, 400-8). Changes in protein abundance upon compound treatment were further analysed by normalising raw luminescence values to DMSO values and fold changes were plotted using for parameter logistic regression with GraphPad Prism (10.1.2).
Furthermore, the present investigators have shown that bifunctional compounds manufactured using the method of the present disclosure may be effective in the uses of bifunctional compounds, for example as PROTACs in targeted protein degradation (TPD). […] GSK3p was targeted for degradation using a binder for GSK3p, and a binder for CRBN; the binders were comprised in molecules comprising moieties for reacting with the orthogonally reactive moieties of the linker. […] The “identifier” identifies the well of the multi-well plate that has been sampled, e.g., AHD2B-1-A1 relates to the top left well in FIG. 1. The DC50 provides an indication of the potency of the bifunctional compound in targeted degradation; Dmax provides an indication of the maximum possible degradation. The use of these metrics is further described in Flexible Fitting of PROTAC Concentration-Response Curves with Changepoint Gaussian Processes, Semenova et al., SLAS Discovery, 2021, 26, 1212-1224.
On the technique in general: The HiBiT peptide binds its large partner to form an active luciferase.

A value given as a limit tells only on which side of the number the result lay.

T1 sequence (P49841 whole entry): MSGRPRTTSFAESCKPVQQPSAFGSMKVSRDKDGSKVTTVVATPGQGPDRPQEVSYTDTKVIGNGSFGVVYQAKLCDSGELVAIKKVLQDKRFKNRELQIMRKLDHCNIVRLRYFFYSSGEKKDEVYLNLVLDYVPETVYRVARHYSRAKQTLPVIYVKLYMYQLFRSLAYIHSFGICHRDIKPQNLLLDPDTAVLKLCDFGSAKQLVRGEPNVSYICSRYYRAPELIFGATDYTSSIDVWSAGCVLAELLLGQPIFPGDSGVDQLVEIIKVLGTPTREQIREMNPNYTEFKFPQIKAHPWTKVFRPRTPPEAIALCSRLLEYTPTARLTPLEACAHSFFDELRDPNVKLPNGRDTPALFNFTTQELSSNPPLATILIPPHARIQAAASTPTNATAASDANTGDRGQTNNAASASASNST
T1 sequence (Q96SW2 whole entry): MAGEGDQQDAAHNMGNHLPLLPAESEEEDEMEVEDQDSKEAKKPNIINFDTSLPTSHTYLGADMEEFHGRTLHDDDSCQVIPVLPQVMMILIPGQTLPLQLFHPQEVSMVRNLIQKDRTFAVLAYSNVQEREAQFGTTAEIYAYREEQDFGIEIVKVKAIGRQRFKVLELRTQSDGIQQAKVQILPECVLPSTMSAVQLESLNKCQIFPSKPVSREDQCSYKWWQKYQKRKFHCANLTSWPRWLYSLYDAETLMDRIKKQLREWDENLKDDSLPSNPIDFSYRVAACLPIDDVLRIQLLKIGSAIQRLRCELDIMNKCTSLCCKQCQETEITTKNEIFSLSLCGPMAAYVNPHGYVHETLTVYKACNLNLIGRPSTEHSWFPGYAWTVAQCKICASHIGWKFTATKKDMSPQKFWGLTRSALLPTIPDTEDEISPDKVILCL
T1 sequence (Q16531 whole entry partner): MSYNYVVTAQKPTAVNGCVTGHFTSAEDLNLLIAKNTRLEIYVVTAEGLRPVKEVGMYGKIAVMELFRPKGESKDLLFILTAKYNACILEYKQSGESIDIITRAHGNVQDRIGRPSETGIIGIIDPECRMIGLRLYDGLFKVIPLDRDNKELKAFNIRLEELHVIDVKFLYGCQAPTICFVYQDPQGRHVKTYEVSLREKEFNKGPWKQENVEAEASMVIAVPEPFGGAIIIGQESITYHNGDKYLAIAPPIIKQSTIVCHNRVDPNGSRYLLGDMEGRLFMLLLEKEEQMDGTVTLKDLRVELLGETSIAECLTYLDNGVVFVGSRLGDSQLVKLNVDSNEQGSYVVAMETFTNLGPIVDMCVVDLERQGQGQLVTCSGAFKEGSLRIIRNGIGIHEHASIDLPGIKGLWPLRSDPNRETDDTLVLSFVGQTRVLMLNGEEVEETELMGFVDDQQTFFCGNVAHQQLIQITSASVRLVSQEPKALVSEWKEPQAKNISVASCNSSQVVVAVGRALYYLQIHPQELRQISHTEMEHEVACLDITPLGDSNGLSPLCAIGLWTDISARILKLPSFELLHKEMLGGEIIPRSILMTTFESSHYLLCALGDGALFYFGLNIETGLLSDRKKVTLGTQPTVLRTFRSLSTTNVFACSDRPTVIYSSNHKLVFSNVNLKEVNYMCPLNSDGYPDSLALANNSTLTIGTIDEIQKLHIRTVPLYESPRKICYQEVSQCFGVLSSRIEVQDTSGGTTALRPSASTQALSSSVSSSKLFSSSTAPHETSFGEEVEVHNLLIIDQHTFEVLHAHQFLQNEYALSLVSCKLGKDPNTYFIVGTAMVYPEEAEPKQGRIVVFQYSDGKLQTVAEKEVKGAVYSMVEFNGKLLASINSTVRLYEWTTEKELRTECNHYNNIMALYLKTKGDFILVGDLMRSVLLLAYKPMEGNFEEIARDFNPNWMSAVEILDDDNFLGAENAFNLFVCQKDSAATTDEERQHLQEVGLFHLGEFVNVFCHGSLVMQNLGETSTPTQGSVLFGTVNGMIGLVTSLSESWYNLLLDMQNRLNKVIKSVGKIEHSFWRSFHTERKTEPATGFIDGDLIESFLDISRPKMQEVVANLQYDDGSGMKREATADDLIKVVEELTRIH

As to `COc1ccc(-c2ocnc2C(=O)NCCCn2cc(COc3ccc(CN4CCN(Cc5ccc(N6CCC(=O)NC6=O)cc5)CC4)cc3)nn2)cc1Cl` [AHD2B-1-G3], the DC50 is greater than 10 µM and the “Dmax (maximal effect)” value is given as less than 30%.
Regarding `COc1ccc(-c2ocnc2C(=O)NCCCn2cc(COCCOCCN3CCN(Cc4ccc(C(=O)NC5CCC(=O)NC5=O)nc4)CC3)nn2)cc1Cl` (centres unmarked) [AHD2B-1-F10], the DC50 was greater than 10 µM and the “Dmax (maximal effect)” value is listed as less than 30%.
As to `COc1ccc(-c2ocnc2C(=O)NCCCn2cc(COCCOCCN3CCN(Cc4ccc(C(=O)NC5CCC(=O)NC5=O)c(F)c4)CC3)nn2)cc1Cl` (centres unmarked) [AHD2B-1-C10], the DC50 is greater than 10 µM and the “Dmax (maximal effect)” value is less than 30%.
For `COc1ccc(-c2ocnc2C(=O)NCCCn2cc(COc3ccc(CN4CC5(C4)CN(Cc4cccc(N6CCC(=O)NC6=O)c4)C5)cc3)nn2)cc1Cl` [AHD2B-1-A11], in that order: greater than 10 µM and less than 30%.
Take `COc1ccc(-c2ocnc2C(=O)NCCCn2cc(-c3ccc(CN4CCN(CC(=O)N[C@H](C(=O)N5C[C@H](O)C[C@H]5C(=O)NCc5ccc(-c6scnc6C)cc5)C(C)(C)C)CC4)cn3)nn2)cc1Cl` [AHD2B-1-B2]: the DC50 is greater than 10 µM and the “Dmax (maximal effect)” value was less than 30%.
In the case of `COc1ccc(-c2ocnc2C(=O)NCCCn2cc(CCCCCN3CCCN(Cc4ccc(C(=O)NC5CCC(=O)NC5=O)c(F)c4)CC3)nn2)cc1Cl` (centres unmarked) [AHD2B-1-C9], the DC50 amounted to 7.1 µM and the “Dmax (maximal effect)” value is 39%.
In the case of `COc1ccc(-c2ocnc2C(=O)NCCCn2cc(COc3ccc(CN4CCN(Cc5cccc(N6CCC(=O)NC6=O)c5)CC4)cc3)nn2)cc1Cl` [AHD2B-1-A3], the DC50 was greater than 10 µM and the “Dmax (maximal effect)” value is less than 30%.
On to `COc1ccc(-c2ocnc2C(=O)NCCCn2cc(CCCCN3CCN(Cc4ccc5c(N6CCC(=O)NC6=O)nn(C)c5c4)CC3)nn2)cc1Cl` [AHD2B-1-D1], for which the DC50 amounted to 2.1 µM and the “Dmax (maximal effect)” value stood at 49%.
Regarding `COc1ccc(-c2ocnc2C(=O)NCCCn2cc(-c3ccc(CN4CCN(Cc5ccc(C(=O)NC6CCC(=O)NC6=O)nc5)CC4)cn3)nn2)cc1Cl` (centres unmarked) [AHD2B-1-F2], the DC50 was greater than 10 µM and the “Dmax (maximal effect)” value was less than 30%.
As to `COc1ccc(-c2ocnc2C(=O)NCCCn2cc(CCCCCN3CCN(Cc4ccc(C(=O)NC5CCC(=O)NC5=O)nc4)CC3)nn2)cc1Cl` (centres unmarked) [AHD2B-1-F7], the DC50 is greater than 10 µM and the “Dmax (maximal effect)” value is less than 30%.
For `COc1ccc(-c2ocnc2C(=O)NCCCn2cc(COC3CCN(Cc4ccc(N5CCC(=O)NC5=O)cc4)CC3)nn2)cc1Cl` [AHD2B-1-G5], in that order: greater than 10 µM and less than 30%.
In the same order, the values of `COc1ccc(-c2ocnc2C(=O)NCCCn2cc(CCCCCN3CCCN(CC(=O)N[C@H](C(=O)N4C[C@H](O)C[C@H]4C(=O)NCc4ccc(-c5scnc5C)cc4)C(C)(C)C)CC3)nn2)cc1Cl` [AHD2B-1-B9] are greater than 10 µM and less than 30%.
For `COc1ccc(-c2ocnc2C(=O)NCCCn2cc(-c3cccc(CN4CCN(CC(=O)N[C@H](C(=O)N5C[C@H](O)C[C@H]5C(=O)NCc5ccc(-c6scnc6C)cc5)C(C)(C)C)CC4)n3)nn2)cc1Cl` [AHD2B-1-B8], in that order: greater than 10 µM and less than 30%.
Consider `COc1ccc(-c2ocnc2C(=O)NCCCn2cc(CCCCCN3CCCN(Cc4cccc(N5CCC(=O)NC5=O)c4)CC3)nn2)cc1Cl` [AHD2B-1-A9], for which the DC50 is greater than 10 µM and the “Dmax (maximal effect)” value is listed as less than 30%.
As for `COc1ccc(-c2ocnc2C(=O)NCCCn2cc(COc3ccc(CN4CCC5(C4)CN(Cc4ccc(C(=O)NC6CCC(=O)NC6=O)nc4)C5)cc3)nn2)cc1Cl` (centres unmarked) [AHD2B-1-F6], the DC50 came to 1.1 µM and the “Dmax (maximal effect)” value is given as 34%.
For `COc1ccc(-c2ocnc2C(=O)NCCCn2cc(COC3CCN(Cc4cccc(N5CCC(=O)NC5=O)c4)CC3)nn2)cc1Cl` [AHD2B-1-A5], in that order: greater than 10 µM and less than 30%.
For `COc1ccc(-c2ocnc2C(=O)NCCCn2cc(COc3ccc(CN4CCN(Cc5ccc(C(=O)NC6CCC(=O)NC6=O)nc5)CC4)cc3)nn2)cc1Cl` (centres unmarked) [AHD2B-1-F3], in that order: greater than 10 µM and less than 30%.
In the same order, the values of `COc1ccc(-c2ocnc2C(=O)NCCCn2cc(-c3ccc(CN4CCN(Cc5ccc(N6CCC(=O)NC6=O)cc5)CC4)cn3)nn2)cc1Cl` [AHD2B-1-G2] are greater than 10 µM and less than 30%.
As for `COc1ccc(-c2ocnc2C(=O)NCCCn2cc(CCCOc3ccc(CN4CCN(Cc5ccc6c(N7CCC(=O)NC7=O)nn(C)c6c5)CC4)cc3)nn2)cc1Cl` [AHD2B-1-D4], the DC50 is less than 0.25 µM and the “Dmax (maximal effect)” value is reported as 41%.
Consider `COc1ccc(-c2ocnc2C(=O)NCCCn2cc(CCCOc3ccc(CN4CCN(Cc5ccc(C(=O)NC6CCC(=O)NC6=O)nc5)CC4)cc3)nn2)cc1Cl` (centres unmarked) [AHD2B-1-F4], for which the DC50 was found to be 0.25 µM and the “Dmax (maximal effect)” value is reported as 32%.
For `COc1ccc(-c2ocnc2C(=O)NCCCn2cc(COC3CCN(Cc4ccc(C(=O)NC5CCC(=O)NC5=O)nc4)CC3)nn2)cc1Cl` (centres unmarked) [AHD2B-1-F5], the DC50 is greater than 10 µM and the “Dmax (maximal effect)” value is recorded as less than 30%.
For `COc1ccc(-c2ocnc2C(=O)NCCCn2cc(-c3cccc(CN4CCN(Cc5ccc(C(=O)NC6CCC(=O)NC6=O)c(F)c5)CC4)n3)nn2)cc1Cl` (centres unmarked) [AHD2B-1-C8], in that order: greater than 10 µM and less than 30%.
For `COc1ccc(-c2ocnc2C(=O)NCCCn2cc(COc3ccc(CN4CCC5(C4)CN(Cc4ccc(C(=O)NC6CCC(=O)NC6=O)c(F)c4)C5)cc3)nn2)cc1Cl` (centres unmarked) [AHD2B-1-C6], in that order: 1.6 µM and 59%.
For `COc1ccc(-c2ocnc2C(=O)NCCCn2cc(CCCN3CCN(CC(=O)N[C@H](C(=O)N4C[C@H](O)C[C@H]4C(=O)NCc4ccc(-c5scnc5C)cc4)C(C)(C)C)CC3)nn2)cc1Cl` [AHD2B-1-B12], the DC50 was greater than 10 µM and the “Dmax (maximal effect)” value was less than 30%.
For `COc1ccc(-c2ocnc2C(=O)NCCCn2cc(COC3CCN(Cc4ccc5c(N6CCC(=O)NC6=O)nn(C)c5c4)CC3)nn2)cc1Cl` [AHD2B-1-D5], the DC50 is 0.55 µM and the “Dmax (maximal effect)” value is listed as 35%.
Consider `COc1ccc(-c2ocnc2C(=O)NCCCn2cc(-c3cccc(CN4CCN(Cc5cccc(N6CCC(=O)NC6=O)c5)CC4)n3)nn2)cc1Cl` [AHD2B-1-A8], for which the DC50 was greater than 10 µM and the “Dmax (maximal effect)” value is on record as less than 30%.
In the same order, the values of `COc1ccc(-c2ocnc2C(=O)NCCCn2cc(COCCOCCN3CCN(CC(=O)N[C@H](C(=O)N4C[C@H](O)C[C@H]4C(=O)NCc4ccc(-c5scnc5C)cc4)C(C)(C)C)CC3)nn2)cc1Cl` [AHD2B-1-B10] are greater than 10 µM and less than 30%.
On to `COc1ccc(-c2ocnc2C(=O)NCCCn2cc(CCCCCN3CCCN(Cc4ccc(N5CCC(=O)NC5=O)cc4)CC3)nn2)cc1Cl` [AHD2B-1-G9], for which the DC50 is greater than 10 µM and the “Dmax (maximal effect)” value is less than 30%.
Turning to `COc1ccc(-c2ocnc2C(=O)NCCCn2cc(CCCN3CCN(Cc4ccc(C(=O)NC5CCC(=O)NC5=O)nc4)CC3)nn2)cc1Cl` (centres unmarked) [AHD2B-1-F12], the DC50 was greater than 10 µM and the “Dmax (maximal effect)” value is recorded as less than 30%.
For `COc1ccc(-c2ocnc2C(=O)NCCCn2cc(COc3ccc(CN4CCN(CC(=O)N[C@H](C(=O)N5C[C@H](O)C[C@H]5C(=O)NCc5ccc(-c6scnc6C)cc5)C(C)(C)C)CC4)cc3)nn2)cc1Cl` [AHD2B-1-B3], in that order: greater than 10 µM and less than 30%.
For `COc1ccc(-c2ocnc2C(=O)NCCCn2cc(CCCOc3ccc(CN4CCN(CC(=O)N[C@H](C(=O)N5C[C@H](O)C[C@H]5C(=O)NCc5ccc(-c6scnc6C)cc5)C(C)(C)C)CC4)cc3)nn2)cc1Cl` [AHD2B-1-B4], in that order: greater than 10 µM and less than 30%.
